Results: ChEMBL document CHEMBL4382216, “Asymmetric synthesis and biological evaluation of imidazole- and oxazole-containing synthetic lipoxin A4 mimetics (sLXms)” (Eur J Med Chem, 2019)
Activity calls are given as the source filed them. The rule behind the calls is not given here.

Tests used:
[1] = molecular target: T1, N-formyl peptide receptor 2 (Homo sapiens, UniProt P25090); assay: Agonist activity at ALX/FPR2 in human THP1 cells harboring NF-kB-Luc assessed as inhibition of LPS-induced NFkB signalling activation by measuring reduction in IL-1beta secretion pretreated for 30 mins followed by LPS stimulation for 24 hrs by electrochemiluminescence assay; assay type: cell-based
T1 sequence (P25090 whole entry): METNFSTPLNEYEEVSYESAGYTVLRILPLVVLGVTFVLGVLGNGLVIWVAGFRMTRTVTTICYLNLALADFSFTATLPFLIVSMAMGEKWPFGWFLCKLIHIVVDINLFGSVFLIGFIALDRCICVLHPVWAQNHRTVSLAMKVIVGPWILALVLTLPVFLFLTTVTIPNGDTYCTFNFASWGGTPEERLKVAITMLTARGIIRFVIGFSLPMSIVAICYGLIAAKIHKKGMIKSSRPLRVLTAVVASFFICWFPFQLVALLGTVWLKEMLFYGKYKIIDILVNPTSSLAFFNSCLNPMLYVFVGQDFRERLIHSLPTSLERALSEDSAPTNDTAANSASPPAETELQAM

Homo sapiens [2] = species on record: Homo sapiens; assay: Activation of Luc-fused NFkB (unknown origin) expressed in non-stimulated human THP1 cells assessed as relative luminescence unit at 10^-9 M after 24 hrs by luciferase reporter gene assay (reference value: 100%); assay type: cell-based
[3] = molecular target: T1, N-formyl peptide receptor 2; assay: Agonist activity at ALX/FPR2 in human THP1 cells harboring NF-kB-Luc assessed as inhibition of LPS-induced NFkB signalling activation by measuring reduction in IL-6 secretion pretreated for 30 mins followed by LPS stimulation for 24 hrs by electrochemiluminescence assay; assay type: cell-based
Homo sapiens [4] = species on record: Homo sapiens; assay: Activation of Luc-fused NFkB (unknown origin) expressed in non-stimulated human THP1 cells assessed as relative luminescence unit at 10^-7 M after 24 hrs by luciferase reporter gene assay (reference value: 100%); assay type: cell-based
Homo sapiens [5] = species on record: Homo sapiens; assay: Activation of Luc-fused NFkB (unknown origin) expressed in non-stimulated human THP1 cells assessed as relative luminescence unit at 10^-6 M after 24 hrs by luciferase reporter gene assay (reference value: 100%); assay type: cell-based
[6] = molecular target: T1, N-formyl peptide receptor 2; assay: Agonist activity at ALX/FPR2 in human THP1 cells harboring NF-kB-Luc assessed as inhibition of LPS-induced NFkB signalling activation by measuring reduction in IFNgamma secretion pretreated for 30 mins followed by LPS stimulation for 24 hrs by electrochemiluminescence assay; assay type: cell-based
[7] = molecular target: T1, N-formyl peptide receptor 2; assay: Agonist activity at ALX/FPR2 in human THP1 cells harboring NF-kB-Luc assessed as inhibition of LPS-induced NFkB signalling activation by measuring reduction in IL-12p70 secretion pretreated for 30 mins followed by LPS stimulation for 24 hrs by electrochemiluminescence assay; assay type: cell-based
Homo sapiens [8] = species on record: Homo sapiens; assay: Activation of Luc-fused NFkB (unknown origin) expressed in non-stimulated human THP1 cells assessed as relative luminescence unit at 10^-11 M after 24 hrs by luciferase reporter gene assay (reference value: 100%); assay type: cell-based
[9] = molecular target: T1, N-formyl peptide receptor 2; assay: Agonist activity at ALX/FPR2 in human THP1 cells harboring NF-kB-Luc assessed as inhibition of LPS-induced NFkB signalling activation pretreated for 30 mins followed by LPS stimulation for 24 hrs by luciferase reporter gene assay; assay type: cell-based
Homo sapiens [10] = species on record: Homo sapiens; assay: Activation of Luc-fused NFkB (unknown origin) expressed in non-stimulated human THP1 cells assessed as relative luminescence unit at 10^-10 M after 24 hrs by luciferase reporter gene assay (reference value: 100%); assay type: cell-based
Homo sapiens [11] = species on record: Homo sapiens; assay: Activation of Luc-fused NFkB (unknown origin) expressed in non-stimulated human THP1 cells assessed as relative luminescence unit at 10^-8 M after 24 hrs by luciferase reporter gene assay (reference value: 100%); assay type: cell-based
[12] = molecular target: T1, N-formyl peptide receptor 2; assay: Agonist activity at ALX/FPR2 in human THP1 cells harboring NF-kB-Luc assessed as inhibition of LPS-induced NFkB signalling activation by measuring reduction in TNFalpha secretion pretreated for 30 mins followed by LPS stimulation for 24 hrs by electrochemiluminescence assay; assay type: cell-based
Homo sapiens [13] = species on record: Homo sapiens; assay: Activation of Luc-fused NFkB (unknown origin) expressed in non-stimulated human THP1 cells assessed as relative luminescence unit at 10^-12 M after 24 hrs by luciferase reporter gene assay (reference value: 100%); assay type: cell-based
[14] = molecular target: T2, N-formyl peptide receptor 2 (Homo sapiens) (UniProt P25090); assay: Agonist activity at ALX/FPR2 (unknown origin) expressed in HEK293 cells co-expressing Galphaq assessed as induction of intracellular calcium accumulation at 2 nM by Fluo-4 dye based fluorescence spectrophotometric assay; assay type: functional, cell-based
T2 sequence (whole entry): T1 sequence (P25090 whole entry)

HEK293 = assay: Induction of intracellular calcium accumulation in HEK293 cells at 2 nM by Fluo-4 dye based fluorescence spectrophotometric assay; assay type: functional, cell-based; conditions: Homo sapiens

Structure (SMILES)	IC50 ([1]; read-out: IC50) [nM]	Activity (Homo sapiens [2]) [%]	IC50 [3]	Activity (Homo sapiens [4]) [%]	Activity (Homo sapiens [5]) [%]	IC50 ([6]; read-out: IC50) [nM]	IC50 ([7]; read-out: IC50) [nM]	Activity (Homo sapiens [8]) [%]	IC50 [9] [nM]	Activity (Homo sapiens [10]) [%]	Activity (Homo sapiens [11]) [%]	IC50 [12]	Activity (Homo sapiens [13]) [%]	IC50 ([3]; read-out: IC50) [nM]	IC50 ([12]; read-out: IC50) [nM]	IC50 [1]	IC50 [6]	IC50 [7]	Activity [14]	Activity (HEK293)
CCC[C@H](O)c1c(/C=C/[C@@H](O)[C@@H](O)CCCC(=O)OC)nc(C)n1C	3.6	1.7	Not Active	1.4	1.3	0.9	6	1.9	31.5	3.2	1.6	Not Active	1.4	–	–	–	–	–	–	–
CCC[C@@H](O)c1c(/C=C/[C@@H](O)[C@@H](O)CCCC(=O)OC)nc(C)n1C	3.7	2.2	–	1.4	0.9	4.3	3.4	1.6	40.3	1.8	–	–	1.8	55.8	4.8	–	–	–	–	–
CCCCC[C@@H](O)c1nc(-c2ccccc2)oc1/C=C/[C@@H](O)[C@@H](O)CCCC(=O)OC(C)C	–	2.7	–	3	2.7	–	–	2.8	37.3	3.2	2.6	–	3.4	6.8	6.5	Not Active	Not Active	Not Active	–	–
CSCC[C@H](NC(=O)[C@@H](NC(=O)[C@H](CCSC)NC(=O)[C@H](Cc1ccc(O)cc1)NC(=O)[C@H](CCCCN)NC(=O)[C@@H](N)Cc1c[nH]c2ccccc12)C(C)C)C(=O)O	–	–	–	–	–	–	–	–	–	–	–	–	–	–	–	–	–	–	Active	inactive
CCCCC[C@H](O)c1c(/C=C/[C@@H](O)[C@@H](O)CCCC(=O)OC)nc(C)n1C	2.6	4.6	–	3.7	5.5	2.2	0.1	4.4	25.3	8.9	–	–	5.2	60.6	3.4	–	–	–	–	–
